From US12077501B2, “Compounds and compositions for intracellular delivery of agents” (ModernaTX, Inc., priority 2017, dated 2024)

Assays:
hEPO expression [1] = assay: hEPO expression in CD-1 mice compared with MC3; type: in vivo; conditions: intravenous, 0.5 mpk, Table 7e
Text: (§1) In contrast, hEPO expression in rats induced by administration of a nanoparticle composition including a compound according to one of formulae (I), (Ia1)-(Ia6), (Ib), (II), (IIa), (III), and (IIIa) was substantially […] than that measured for MC3. […] Tables 7c and 7d show additional protein expressions and clearance data from compositions with various compounds disclosed herein as compared to with MC3. Tables 7e, 7f and 7g show hEPO expression data in CD-1 mice at a dose of 0.5 mpk.

[2] = pKa of nanoparticle compositions; type: physicochemical
[3] = Particle size and polydispersity index of nanoparticle compositions (Zetasizer Nano ZS); type: physicochemical
Experimental: A Zetasizer Nano ZS (Malvem Instruments Ltd, Malvem, Worcestershire, UK) can be used to determine the particle size, the polydispersity index (PDI) and the zeta potential of the nanoparticle compositions in 1×PBS in determining particle size and 15 mM PBS in determining zeta potential.

[4] = Encapsulation efficiency of RNA (QUANT-IT RIBOGREEN RNA assay); type: physicochemical
Experimental: For nanoparticle compositions including an RNA, a QUANT-IT™ RIBOGREEN® RNA assay (Invitrogen Corporation Carlsbad, CA) can be used to evaluate the encapsulation of an RNA by the nanoparticle composition. The samples are diluted to a concentration of approximately 5 μg/mL in a TE buffer solution (10 mM Tris-HCl, 1 mM EDTA, pH 7.5). 50 μL of the diluted samples are transferred to a polystyrene 96 well plate and either 50 μL of TE buffer or 50 μL of a 2% Triton X-100 solution is added to the wells. The plate is incubated at a temperature of 37° C. for 15 minutes. The RIBOGREEN® reagent is diluted 1:100 in TE buffer, and 100 μL of this solution is added to each well. The fluorescence intensity can be measured using a fluorescence plate reader (Wallac Victor 1420 Multilablel Counter; Perkin Elmer, Waltham, MA) at an excitation wavelength of, for example, about 480 nm and an emission wavelength of, for example, about 520 nm. The fluorescence values of the reagent blank are subtracted from that of each of the samples and the percentage of free RNA is determined by dividing the fluorescence intensity of the intact sample (without addition of Triton X-100) by the fluorescence value of the disrupted sample (caused by the addition of Triton X-100).

[5] = Lipid purity change after storage in EtOH for 96 h at 25 or 37 °C; type: physicochemical
Experimental: Nanoparticle compositions including a therapeutic and/or prophylactic agent can be optimized according to the selection of a compound according to one of formulae (I), (Ia1)-(Ia10), (Ib), (Ic), (Id), (Id1)-(Id10), (Ie), (Ie1)-(Ie6), (II), (IIa), (III), and (IIIa), the selection of additional lipids, the amount of each lipid in the lipid component, and the wt:wt ratio of the lipid component to the therapeutic and/or prophylactic agent, as described herein. Initial studies were performed to compare the delivery efficiency of nanoparticle compositions including various compounds according to one of formulae (I), (Ia1)-(Ia10), (Ib), (Ic), (Id), (Id1)-(Id10), (Ie), (Ie1)-(Ie6), (II), (IIa), (III), and (IIIa). The cationic lipid MC3 is a current standard in the art. Also determined was the stability of nanoparticles of the disclosure, i.e., the purity after storage in EtOH for 96h at 25° C. or 37° C. (Table Id).

[6] = Lipid clearance: % dose remaining in liver of CD-1 mice; type: in vivo; conditions: intravenous, 0.5 mg/kg, CD-1 mouse, Table 8a
Text: as §1

hEPO expression [7] = assay: hEPO (miR126 + miR142) mRNA expression, Tables 8b-8e; type: in vivo; conditions: Table 8b
[8] = Table 1c, nanoparticle compositions
[9] = Table 1d, Formulated with lipid:Chol:DOPE:PEG 1 40:38.5:20:1.5

| SMILES | AUC (p/s*h) CD-1 mice 0.5 mpk (hEPO expression [1]) [p/s*h] | PDI [3, 8] | Size (nm) [3, 8] [nm] | EE (%) [4, 8] [%] | pKa ([2]; Table 1c) | Lipid % change purity in EtOH, 25° C., 96 h [5] [%] | Lipid % change purity in EtOH, 37° C., 96 h [5] [%] | % Dose Remaining 24 hr [6] [%] | other results |
| --- | --- | --- | --- | --- | --- | --- | --- | --- | --- |
| CCCCCCCCCN(CCCCCCCCC)CCN(CCCCCCCCC)CC(=O)N1CCN(C(=O)CN(CCCCCCCCC)CCCC(=O)OCCCCC)CC1 [Compound 45, Pentyl 4-((2-(4-(N-(2-(dinonylamino)ethyl)-N-nonylglycyl)piperazin-1-yl)-2-oxoethyl)(nonyl)amino)butanoate] | 6.98E+07 |  |  |  |  |  |  |  |  |
| CCCCCCCCCN(CCCCCCCCC)CCC1CCN(C(=O)CN(CCCCCCCCC)CCN(CCCCCCCCC)CCCCCCCCC)CC1 [Compound 49, 2-((2-(Dinonylamino)ethyl)(nonyl)amino)-1-(4-(2-(dinonylamino)ethyl)piperidin-1-yl)ethan-1-one] | 1.59E+08 |  |  |  |  |  |  |  |  |
| CCCCCCCCCN(CCCCCCCCC)CCC(=O)N1CCN(C(=O)CCN(CCCCCCCCC)CCN(CCCCCCCCC)CCCCCCCCC)CC1 [Compound 52, 3-(Dinonylamino)-1-(4-(3-((2-(dinonylamino)ethyl)(nonyl)amino)propanoyl)piperazin-1-yl)propan-1-one] | 7.78E+07 |  |  |  |  |  |  |  |  |
| CCCCCCCCCN(CCCCCCCCC)CCN(CCCCCCCCC)CC(=O)N1CCN(C(=O)CN(CCCCCCCCC)CCCOC(=O)CCCCC)CC1 [Compound 56, 3-((2-(4-(N-(2-(Dinonylamino)ethyl)-N-nonylglycyl)piperazin-1-yl)-2-oxoethyl)(nonyl)amino)propyl hexanoate] | 4.52E+07 |  |  |  |  |  |  |  | pKa ([2]; Table 1b): 6.94 |
| CCCCCCCCCN(CCCCC(=O)OCCCC)CCC1CCN(C(=O)CN(CCCCCCCCC)CCN(CCCCCCCCC)CCCCCCCCC)CC1 [Compound 60, Butyl 5-((2-(1-(N-(2-(dinonylamino)ethyl)-N-nonylglycyl)piperidin-4-yl)ethyl)(nonyl)amino)pentanoate] | 4.86E+07 |  |  |  |  |  |  |  | pKa ([2]; Table 1b): 6.66 |
| CCCCCCCCCN(CCCOC(=O)CCCCC)CCC1CCN(C(=O)CN(CCCCCCCCC)CCN(CCCCCCCCC)CCCCCCCCC)CC1 [Compound 61, 3-((2-(1-(N-(2-(Dinonylamino)ethyl)-N-nonylglycyl)piperidin-4-yl)ethyl)(nonyl)amino)propyl hexanoate] | 6.29E+07 |  |  |  |  |  |  |  | pKa ([2]; Table 1b): 6.61 |
| CCCCCCCCCN(CCCC(=O)OCCCCC)CCN(CCCCCCCCC)CC(=O)N1CCN(C(=O)CN(CCCCCCCCC)CCCC(=O)OCCCCC)CC1 [Compound 71, Pentyl 4-(nonyl(2-(4-(N-nonyl-N-(2-(nonyl(4-oxo-4-(pentyloxy)butyl)amino)ethyl)glycyl)piperazin-1-yl)-2-oxoethyl)amino)butanoate] | 2.48E+07 |  |  |  |  |  |  |  | pKa ([2]; Table 1b): 6.44 |
| CCCCCCCCCN(CCCCCCCCC)CCN(CCCCCCCCC)CC(=O)N1CCC(COC(=O)CN(CCCCCCCCC)CCCCCCCCC)C1 (centres unmarked) [Compound 102, (1-(N-(2-(Dinonylamino)ethyl)-N-nonylglycyl)pyrrolidin-3-yl)methyl dinonylglycinate] | 6.34E+06 | 0.23 | 71.5 | 97.6 | 5.85 | 14.8 | 31.5 |  |  |
| CCCCCCCCCCCCCCN(CCCCCCCCCCCC(=O)OC)CCC1CCCN(C(=O)CN(CCCCCCCCC)CCN(CCCCCCCCC)CCCCCCCCC)C1 (centres unmarked) [Compound 123, Methyl 12-((2-(1-(N-(2-(dinonylamino)ethyl)-N-nonylglycyl)piperidin-3-yl)ethyl)(tetradecyl)amino)dodecanoate] | 5.84E+07 |  |  |  | 6.51 |  |  | 3.75 |  |
| CCCCCCCCCCCCCCN(CCCCCC(=O)OCCCCCCC)CCC1CCN(C(=O)CN(CCCCCCCCC)CCN(CCCCCCCCC)CCCCCCCCC)C1 (centres unmarked) [Compound 125, Heptyl 6-((2-(1-(N-(2-(dinonylamino)ethyl)-N-nonylglycyl)pyrrolidin-3-yl)ethyl)(tetradecyl)amino)hexanoate] | 7.89E+06 |  |  |  | 6.89 |  |  | 2.74 |  |
| CCCCCC/C=C\CC(=O)OCCCN(CCCCCCCCCCCCCC)CC(=O)N1CCN(C(=O)CN(CCCCCCCCC)CCN(CCCCCCCCC)CCCCCCCCC)CC1 [Compound 137, 3-((2-(4-(N-(2-(Dinonylamino)ethyl)-N-nonylglycyl)piperazin-1-yl)-2-oxoethyl)(tetradecyl)amino)propyl (Z)-dec-3-enoate] |  | 0.22 | 78.5 | 98.8 | 6.93 | 0.36 | 1.17 | 0.26 |  |
| CCCCC/C=C\CCN(CC/C=C\CCCCC)CCN(CC/C=C\CCCCC)CC(=O)N1CCN(C(=O)CN(CCCCCCCCC)CCCCCCCC(=O)OC)CC1 [Compound 139, Methyl 8-((2-(4-(N-(2-(Di((Z)-non-3-en-1-yl)amino)ethyl)-N—((Z)-non-3-en-1-yl)glycyl)piperazin-1-yl)-2-oxoethyl)(nonyl)amino)octanoate] |  | 0.23 | 83.8 | 94.8 | 6.15 | 0.67 | 1.49 | 0.29 |  |
| CCCCCCCCCCCC(=O)N1CCN(C(=O)CN(CCCCCCCCC)CCN(CCCCCCCCC)CCCCCCCCC)CC1 [Compound 143, 1-(4-(N-(2-(Dinonylamino)ethyl)-N-nonylglycyl)piperazin-1-yl)dodecan-1-one] |  | 0.21 | 93.7 | 97.4 | 7.26 | 1.10 | 1.80 | 38.63 |  |
| CCCCCCCCCN(CCCCCCCCC)CCN(CCCCCCCCC)CC(=O)N1CCN(C(=O)CCCC(=O)OCCCCCCC)CC1 [Compound 144, Heptyl 5-(4-(N-(2-(dinonylamino)ethyl)-N-nonylglycyl)piperazin-1-yl)-5-oxopentanoate] |  | 0.19 | 83.3 | 97.2 | 7.59 | 5.06 | 7.63 | 3.25 |  |
| CCCCCCCCCN(CCCCCCCCC)CCN(CCCCCCCCC)CC(=O)N(C)CCCCN(C)C(=O)CN(CCCCCCCCC)CCCCCCCCC [Compound 159, 2-(dinonylamino)-N-(4-(2-((2-(dinonylamino)ethyl)(nonyl)amino)-N-methylacetamido)butyl)-N-methylacetamide] |  |  |  |  |  |  |  |  | PDI [3, 9]: 0.12; Size (nm) [3, 9]: 76.5 nm; EE (%) [4, 9]: 92.9%; AUC (hEPO expression [7]): 6.56e+07 pg·h/mL |
